Converted amounts (≈) assume the structure as drawn.
Settings: buffer; pH 7.4; 200.0 µM

SMILES	solubility kinetic
COc1cccc(CNS(=O)(=O)c2csc(C(N)=O)c2)c1	> 49 µg/mL
CCNC(=O)N1CCN(C(=O)NCC)CC1	13.6 µg/mL (≈ 59.6 µM)
COc1ccc(C(=O)NCCCSc2ccccc2)cc1F	2.5 µg/mL (≈ 7.83 µM)
CCOC(=O)c1csc(NC(=O)c2cc(=O)c3ccccc3o2)n1	11.5 µg/mL (≈ 33.4 µM)
O=C(COC(=O)COc1ccc(Cl)cc1)NCCCc1ccccc1	26.1 µg/mL (≈ 72.1 µM)
O=C(NCCCNC(=O)c1cnccn1)c1ccc(Cl)cc1	> 47.8 µg/mL
CN(Cc1ccccc1)C(=O)c1ccccc1C(=O)OCC(=O)N(Cc1ccccc1)C(C)(C)C	25.7 µg/mL (≈ 54.4 µM)
COc1ccccc1OCCNC(=O)C1CCCCC1	33.8 µg/mL (≈ 122 µM)
COc1ccccc1CN1CCCCC1C(=O)O (centres undefined)	35.8 µg/mL (≈ 144 µM)
Nc1cccc(NC(=O)CCC(=O)NCc2ccco2)c1	> 43.1 µg/mL
Cc1cccc(NC(=O)Nc2ccc3c(c2)CCC3)c1	< 0.3 µg/mL
Cc1cc(Cl)ccc1NC(=O)C1CCN(S(C)(=O)=O)CC1	10.8 µg/mL (≈ 32.6 µM)
CC1CC(C)CN(C(=O)CCCNC(=O)c2ccc(Cl)cc2)C1 (centres undefined)	> 50.5 µg/mL
Cc1ccc(/C=[N+](\[O-])c2ccccc2C)o1	22.2 µg/mL (≈ 103 µM)
Cc1cccc2c(N=O)c(O)n(CCc3ccccc3)c12	0.4 µg/mL (≈ 1.43 µM)
CC1CC(C)CN(C(=O)COC(=O)CN2C(=O)c3ccccc3C2=O)C1 (centres undefined)	> 53.8 µg/mL
CC(=Nc1ccccc1N)c1c(O)n(C)c(=O)[nH]c1=O	> 41.1 µg/mL
CCN(Cc1ccncc1)C(=O)c1cccc(S(=O)(=O)N2CCCCC2)c1	> 58.1 µg/mL
O=C1CC(c2cccs2)c2ccc3ccccc3c2N1 (centres undefined)	< 0.6 µg/mL
CC(C)c1ccccc1NC(=S)NCc1ccncc1	41.1 µg/mL (≈ 144 µM)
O=C(O)c1nc(NCCc2ccccc2)ncc1Cl	> 41.7 µg/mL
COC(=O)Nc1nn(-c2ccc(OC)cc2)c(=O)c(C#N)c1C	> 47.1 µg/mL
COc1ccc(OCCCN2CCc3ccccc3C2)cc1.Cl	36.5 µg/mL
COc1ccc(Cn2c(C)nc3ccc([N+](=O)[O-])cc3c2=O)cc1	3.8 µg/mL (≈ 11.7 µM)

SMILES	solubility kinetic
O=C(CSCc1c(F)cccc1Cl)NCc1ccncc1	> 48.7 µg/mL
O=C(NCCC1=CCCCC1)c1c(O)nc2ccccn2c1=O	8.7 µg/mL (≈ 27.8 µM)
O=C(OCC(=O)N1CCCC1)c1cc([N+](=O)[O-])ccc1Cl	> 46.9 µg/mL
Cc1ccc(C)c(CNC(=O)Nc2ccccc2)c1	0.8 µg/mL (≈ 3.15 µM)
c1ccc2nc3ccccc3nc2c1	12.3 µg/mL (≈ 68.3 µM)
N#Cc1c(N)nc2c(c1-c1ccc(F)cc1)c(=O)nc1sccn12	5.7 µg/mL (≈ 16.9 µM)
O=C(OCC(=O)N1CCCC1)c1cc(F)c(F)cc1Cl	45.3 µg/mL (≈ 149 µM)
COc1cccc(C(=O)N2CCN(c3ccccn3)CC2)c1	43.8 µg/mL (≈ 147 µM)
CCOc1ccc(C(C)NC(=O)Nc2ccc(F)cc2F)cc1 (centres undefined)	1.8 µg/mL (≈ 5.62 µM)
CC(=O)Nc1ccc(C)c(NC(=S)Nc2ccc(F)cc2)c1	42.6 µg/mL (≈ 134 µM)
O=C(COC(=O)c1ccc(O)cc1)Nc1ccccc1	> 40.7 µg/mL
CCCCOP(=O)(c1ccc(N(C)C)cc1)C(O)c1ccc(N(C)C)cc1 (centres undefined)	> 58.6 µg/mL
Cc1[nH]c(=O)[nH]c(=O)c1N1CCOCC1	> 31.7 µg/mL
Cc1c(Cl)cccc1NC(=O)C1CCN(c2cnccn2)CC1	2.1 µg/mL (≈ 6.35 µM)
COc1ccc(NC(=O)c2cc3cc(OC)ccc3oc2=O)cc1	< 0.7 µg/mL
COC(=O)c1ccc(NS(=O)(=O)c2ccc(S(=O)(=O)N3CCOCC3)cc2)cc1	> 66.1 µg/mL
Cc1cccc(Cc2nnc(CCC(=O)N(C)Cc3ccncc3C)o2)c1	> 54.7 µg/mL
Cc1cccc(Nc2nc(OCC#N)nc(N(C)C)n2)c1	2.8 µg/mL (≈ 9.85 µM)
Cc1[nH]c(=O)c(Cc2ccccc2)c(O)c1C#N	> 36 µg/mL
Cn1c(COc2ccc(C(=O)O)cc2)nc2ccccc21	> 42.3 µg/mL
CCN1CCN(S(=O)(=O)c2ccc(OC)c3ccccc23)CC1	29.2 µg/mL (≈ 87.3 µM)
COC(=O)c1ccccc1NC(=O)CNC(=O)c1ccc(OC)cc1	45 µg/mL (≈ 131 µM)
Cc1c(C(=O)N2CCOCC2)oc2ccccc12	> 36.8 µg/mL
Cn1cc(SCC(=O)NC2CCCCC2)c2ccccc21	9.5 µg/mL (≈ 31.4 µM)

SMILES	solubility kinetic
CCN(/C=N/S(=O)(=O)c1ccc(Cl)cc1)CC	> 41.2 µg/mL
CCc1ccc(C(=O)Nc2ccc(C)c(NS(C)(=O)=O)c2)cc1	39.7 µg/mL (≈ 119 µM)
CCN(CC)Cc1c(O)ccc2c(=O)c(-c3ccccc3OC)coc12	> 53 µg/mL
CC(=O)Nc1ccc(C(=O)COC(=O)c2ccco2)c(F)c1	> 45.8 µg/mL
O=C(COC(=O)/C=C/c1ccc(Cl)cc1)NC1CCCC1	3.5 µg/mL (≈ 11.4 µM)
CC(CNC(=O)c1ccco1)NC(=O)c1ccco1 (centres undefined)	38.8 µg/mL (≈ 148 µM)
COC(=O)c1ccc(CO/N=C/c2ccc(OC)cc2)o1	13.9 µg/mL (≈ 48 µM)
COc1ccccc1CNc1ccc(Br)cn1	11.6 µg/mL (≈ 39.6 µM)
Cc1cccc(C(=O)OCC(=O)N2CC(C)OC(C)C2)c1C (centres undefined)	> 45.8 µg/mL
O=C(COC(=O)c1ccccc1OCc1ccc(Cl)cc1)NCC1CCCO1 (centres undefined)	> 60.6 µg/mL
Cc1ccc2oc(=O)n(CC(=O)OCCC(C)C)c2c1	16 µg/mL (≈ 57.7 µM)
O=C(Oc1ccc([N+](=O)[O-])cc1)C1CC(=O)N(c2ccc3c(c2)OCCO3)C1 (centres undefined)	> 57.7 µg/mL
Cl.Oc1ccc(Nc2ncnc3ccccc23)cc1	13.7 µg/mL
CN(CC(=O)Nc1ccc(OC(F)F)cc1)S(=O)(=O)/C=C/c1ccccc1	5.4 µg/mL (≈ 13.6 µM)
CC1CN(C(=O)c2ccc(COc3ccccc3Cl)o2)CC(C)O1 (centres undefined)	> 52.5 µg/mL
O=C(CSc1nc2ccccc2c(=O)n1CCCO)NC1CC1	> 50 µg/mL
O=C(CCC(=O)NC1CCCCC1)NCc1ccc(F)cc1	> 46 µg/mL
O=C(CCl)N(CCCNC(=O)C(F)(F)F)c1ccc([N+](=O)[O-])cc1	> 55.2 µg/mL
CSc1nc(-c2ccccc2F)c(C#N)c(=O)n1C	20.7 µg/mL (≈ 75.2 µM)
NC(=O)c1cc(S(=O)(=O)Nc2ccccc2)cs1	> 42.3 µg/mL
CCn1cc(CCCC(=O)NCc2ccc(OC)cc2)c2ccccc21	10.5 µg/mL (≈ 30 µM)
COc1ccc(NC(=O)CC2(CC(=O)O)CCCC2)cn1	> 43.9 µg/mL
CNS(=O)(=O)c1cccc(C(=O)NCC(C)(C)N2CCCCC2)c1	48.8 µg/mL (≈ 138 µM)
CN1c2ccsc2C(=O)/C(=C\Nc2cccc(C(F)(F)F)c2)S1(=O)=O	< 0.4 µg/mL

SMILES	solubility kinetic
O=C(CN1C(=O)NC2NC(=O)NC21)NC1CCCCC1 (centres undefined)	> 42.2 µg/mL
NC(=O)c1ccccc1NC(=O)CN1CCCCCC1	> 41.3 µg/mL
COc1cccc(/C=C/C(=O)OCC(=O)NCCc2ccccc2)c1	6.7 µg/mL (≈ 19.7 µM)
Clc1cccc(-c2nc(NCC3CCCO3)c3ccccc3n2)c1 (centres undefined)	1.2 µg/mL (≈ 3.53 µM)
CC(OC(=O)c1ccc(C#N)cc1)C(=O)Nc1ccc(Cl)cn1 (centres undefined)	5.4 µg/mL (≈ 16.4 µM)
COc1cccc(C(=O)NCc2ccc3c(c2)OCO3)c1	37 µg/mL (≈ 130 µM)
CC(C)CN=CC1=C(O)c2ccccc2C1=O	29.5 µg/mL (≈ 129 µM)
COc1ccc(NS(=O)(=O)c2cc(C(=O)N3CCCCCC3)ccc2C)cc1	> 60.4 µg/mL
O=S(=O)(Nc1ccc(C(F)(F)F)cn1)c1ccccc1	45.3 µg/mL (≈ 150 µM)
CCn1c(=O)c2cc(C(=O)NCCC(C)C)sc2c2ccccc21	< 0.4 µg/mL
Cc1cc(OC(=O)c2ccc(F)cc2)c([N+](=O)[O-])c(=O)[nH]1	43.2 µg/mL (≈ 148 µM)
CC(C)Oc1ccccc1C1(c2ccccc2)NC(=O)NC1=O (centres undefined)	> 46.6 µg/mL
CCN(c1ccc(NC(=O)COC(=O)/C=C/c2ccco2)cc1)C(C)C	24.5 µg/mL (≈ 68.7 µM)
O=c1c(Cc2ccccc2)c(O)ccn1C1CCCCCCC1	1.5 µg/mL (≈ 4.82 µM)
CC(C)N(C1=CC(=O)OC12CCCCC2)C(C)C	> 37.7 µg/mL
CCOC(=O)Cc1cc(=O)n2[nH]c(C)c(-c3ccccc3OC)c2n1	> 51.2 µg/mL
Cc1ccc(NC(=O)/C(=C\c2ccccc2)NC(=O)c2ccco2)cc1	4.7 µg/mL (≈ 13.6 µM)
CCc1c(O)nc(SCC(=O)c2ccccc2)n(-c2ccccc2)c1=O	44.6 µg/mL (≈ 122 µM)
Cc1ccc(-c2nc(Nc3ccc(O)cc3)c3ccccc3n2)cc1	0.9 µg/mL (≈ 2.75 µM)
O=[N+]([O-])c1ccc(CN2CCN(c3ccccc3Cl)CC2)o1	31.8 µg/mL (≈ 98.8 µM)
O=C(O)[C@@H]1Cc2ccccc2N1	6.6 µg/mL (≈ 40.4 µM)
O=C(COc1ccccc1Cl)NCCNC(=O)c1cnccn1	39.6 µg/mL (≈ 118 µM)
COc1ccc(NC(=O)c2ccc(NC(=O)COC(=O)c3cnc(C)cn3)cc2)cc1	9.1 µg/mL (≈ 21.6 µM)
CC(C)OC(=O)CSc1nc(C(C)C)nc2ccccc12	2.1 µg/mL (≈ 6.9 µM)

SMILES	solubility kinetic
COc1ccc(NC(=O)C2CC(=O)n3c(nc4ccccc43)N2)cc1 (centres undefined)	0.3 µg/mL (≈ 0.892 µM)
COc1ccc(OC)c(NC(=O)COC(=O)/C=C/c2ccco2)c1	10.4 µg/mL (≈ 31.4 µM)
O=C(CSc1nccc(=O)[nH]1)Nc1ccc(Oc2ccccc2)cc1	11.5 µg/mL (≈ 32.5 µM)
Cc1ccc(-c2ncns2)cc1	0.5 µg/mL (≈ 2.84 µM)
COCC(=O)Nc1nc(-c2ccc(-c3ccccc3)cc2)cs1	4.4 µg/mL (≈ 13.6 µM)
O=C(CCNC(=O)c1ccccc1)NC1CCCc2ccccc21 (centres undefined)	43.4 µg/mL (≈ 135 µM)
CCOc1ccc(C(=O)NCc2ccco2)cc1OCC	22.5 µg/mL (≈ 77.8 µM)
COc1ccc2occ(C(=O)c3ccc(N)cc3)c2c1	1.7 µg/mL (≈ 6.36 µM)
Cl.O=C(Nc1cccc(C(F)(F)F)c1)c1cccnc1NCCO	> 54.3 µg/mL
COc1nc2ccccc2nc1N1CCN(c2ccc(F)cc2)CC1	< 0.2 µg/mL
CCOC(=O)C1(Cc2ccccc2)CCCN(Cc2ccncc2)C1 (centres undefined)	31.3 µg/mL (≈ 92.5 µM)
C=CCn1c(C)cc(C(=O)COc2ccc(N(C)S(=O)(=O)c3ccc(NC(C)=O)cc3)cc2)c1C	9.3 µg/mL (≈ 18.8 µM)
COC(=O)c1c(SCC(=O)Nc2ccc(C)cc2)nc(=O)[nH]c1C	8.4 µg/mL (≈ 24.2 µM)
CCc1cccc(C)c1NC(=O)C1CCCN(S(C)(=O)=O)C1 (centres undefined)	> 48.7 µg/mL
COc1cccc(CN2CCCCC2C(=O)O)c1 (centres undefined)	> 37.4 µg/mL
O=C(COC(=O)c1cc2ccccc2cc1O)Nc1ccccc1F	6.3 µg/mL (≈ 18.6 µM)
Cc1cc(N2CCCC2)c(F)cc1/C=C\[N+](=O)[O-]	0.4 µg/mL (≈ 1.6 µM)
Cc1cc(C)c(NC(=O)C2=COCCO2)c(C)c1	> 37.1 µg/mL
O=C(NCCCc1ccccc1)c1cncc(Br)c1	47.9 µg/mL (≈ 150 µM)
N#Cc1nc(-c2cccc3ccccc23)oc1NCC1CCCO1 (centres undefined)	3.3 µg/mL (≈ 10.3 µM)
COC(=O)c1cc(-c2cccc([N+](=O)[O-])c2)c2c(=O)[nH]c(=O)n(C)c2n1	1.1 µg/mL (≈ 3.09 µM)
CC1=CC(=C(C#N)C#N)C=C(C)N1CCC(C)C	1.7 µg/mL (≈ 7.04 µM)
O=C(Nc1ccccc1)C1CCCN1C(=O)NCc1ccccc1 (centres undefined)	22 µg/mL (≈ 68 µM)

From PubChem BioAssay AID1996
